Laboratory results from EP0028117A1, “Guanidine compounds, process for preparing them and compositions containing them” (SMITH KLINE & FRENCH LABORATORIES LIMITED, priority 1979, dated 1981).

Experiments:
[1] = tested on: histamine H2-receptors; assay: Inhibition of histamine-stimulated gastric acid secretion from lumen-perfused stomachs of anaesthetised rats; type: in vivo; details: i.v., lumen-perfused stomachs of rats anaesthetised with urethane
[2] = target: T1, histamine H2-receptors (Cavia porcellus, UniProt P47747); assay: Inhibition of histamine-induced tachycardia in the isolated guinea pig atrium; details: read-out: effective dose producing 50% inhibition of the histamine-induced tachycardia
T1 construct: histamine-induced tachycardia in the isolated guinea pig atrium; from tissue; host or cells: isolated guinea pig atrium
T1 sequence (P47747 whole entry): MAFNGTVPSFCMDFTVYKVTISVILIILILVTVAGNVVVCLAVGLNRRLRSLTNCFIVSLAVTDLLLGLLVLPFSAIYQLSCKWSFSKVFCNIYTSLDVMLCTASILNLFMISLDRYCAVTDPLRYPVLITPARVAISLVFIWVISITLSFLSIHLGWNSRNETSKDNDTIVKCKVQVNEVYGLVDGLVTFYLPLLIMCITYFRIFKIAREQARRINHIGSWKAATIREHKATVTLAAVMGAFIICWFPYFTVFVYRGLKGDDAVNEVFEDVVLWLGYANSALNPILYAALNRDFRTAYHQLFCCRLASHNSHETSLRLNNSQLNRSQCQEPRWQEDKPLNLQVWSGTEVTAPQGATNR
From the text: This procedure is referred to in Ash and Schild, Brit. J. Pharmac. Chemother., 1966. 27. […] For example, they inhibit the actions of histamine on the isolated guinea pig atrium.

- IC50 [2]: < 1 µM
Structure (SMILES): N=C(N)Nc1nc(CSCCNc2[nH]ccc2[N+](=O)[O-])cs1 [Example 1, 2-[2-(2-Guanidino-4-thiazolylmethylthio)ethylamin]-3-nitropyrrole]
- doses causing 50% inhibition of maximal acid secretion [1]: less than 0.1 micromole kg^-1
